Our source for the GI50 and TGI values is PubChem BioAssay (NCI).

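Values below derive from 48-hour exposures of cells grown in 96-well plates, with endpoints linearly interpolated between the two concentrations bracketing the appropriate inhibition level. GI50: concentration for 50% inhibition of growth. At the TGI there is no net growth.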

Among the test systems are KM12 colon; 786-0 renal; EKVX NSCLC; MDA-MB-231 breast; NCI-H522 lung; A498 renal; PC-3 prostate; HOP-92 NSCLC.
Experiment in all cases: inhibition of tumour cell growth, NCI panel, 48 h

Regarding `CCCC[C@H](NC(=O)[C@H]1CCCN1C)C(=O)N(C)[C@H](C[C@@H](OC(C)=O)c1nc(C(=O)N[C@@H](Cc2ccccc2)C[C@H](C)C(=O)OCC)cs1)C(C)C`, the GI50 in the assay on KM12 colon was 0.0114 µM; with 786-0 renal, 0.0171 µM; in the assay on EKVX NSCLC, 0.0591 µM; in the assay on MDA-MB-231 breast it was 0.018 µM; with NCI-H522 lung, 0.00341 µM; in the assay on A498 renal it was 0.00714 µM. The values for the GI50 in the assay on PC-3 prostate and in the assay with HOP-92 NSCLC were 0.00957 µM and 1.9 µM, respectively. In addition, the TGI is 18 µM with KM12 colon; 9.96 µM with 786-0 renal; over 33.3 µM in the assay on EKVX NSCLC; 0.844 µM with MDA-MB-231 breast; 0.0143 µM in the assay on NCI-H522 lung; 0.0841 µM with A498 renal. In addition, the TGI with PC-3 prostate is over 33.3 µM; in the assay with HOP-92 NSCLC it was 32.7 µM.
As to `COc1cc(Cl)cc(-c2nn(C(=O)NCCN3CCOCC3)cc2-c2ccncc2)c1`, the GI50 was 3.79 µM in the assay on KM12 colon; 6.88 µM in the assay with 786-0 renal; 5.57 µM in the assay with EKVX NSCLC; 13 µM with MDA-MB-231 breast; 3.38 µM with NCI-H522 lung; 3.1 µM in the assay with A498 renal. The GI50 was 4.24 µM in the assay with PC-3 prostate and 4.35 µM with HOP-92 NSCLC. Further, the TGI is over 100 µM in the assay with KM12 colon; 37.9 µM in the assay on 786-0 renal; 79.9 µM with EKVX NSCLC; over 100 µM in the assay with MDA-MB-231 breast; over 100 µM in the assay on NCI-H522 lung; 35.2 µM with A498 renal. The TGI is over 100 µM with PC-3 prostate and 84.6 µM in the assay with HOP-92 NSCLC.
With `CCCN=Cc1cc(Cc2ccc(O)c(C=NCCC)c2)ccc1O`, the TGI with KM12 colon turned out to be 22 µM; in the assay on 786-0 renal it was 32.1 µM; in the assay on EKVX NSCLC, 26.4 µM; in the assay with MDA-MB-231 breast, 33.5 µM; in the assay with NCI-H522 lung it was 45.1 µM; in the assay with A498 renal it was 8.97 µM. The TGI turned out to be 5.89 µM with PC-3 prostate and 8.03 µM with HOP-92 NSCLC.
Turning to `COc1ccc(N2C(C)=C(C#N)C34C(=O)N(c5ccccc5)C(=O)C3=C(O)C=CC24O)cc1` (stereo not given), the GI50 is 10 µM in the assay with KM12 colon; 19 µM in the assay with 786-0 renal; 22.3 µM in the assay on EKVX NSCLC; 14.5 µM in the assay on MDA-MB-231 breast; 18.6 µM with A498 renal; 17.1 µM in the assay with PC-3 prostate. In the assay with HOP-92 NSCLC, the GI50 was 12.5 µM. Also, the TGI came to 26.6 µM in the assay with KM12 colon; 65.8 µM in the assay with 786-0 renal; 85.8 µM in the assay on EKVX NSCLC; 29.8 µM in the assay on MDA-MB-231 breast; 48.2 µM with A498 renal; 62.5 µM in the assay on PC-3 prostate. Also, in the assay with HOP-92 NSCLC, the TGI came out at 45.3 µM.
For the compound `CNC(=O)c1cncc(/C=C/c2ccccc2C)c1`, the GI50 with KM12 colon was over 25 µM; with 786-0 renal, over 25 µM; in the assay with EKVX NSCLC it was over 25 µM; in the assay on MDA-MB-231 breast, over 25 µM; with NCI-H522 lung, over 25 µM; in the assay with A498 renal it was 17.4 µM. In addition, the GI50 in the assay on PC-3 prostate and in the assay with HOP-92 NSCLC was over 25 µM each time. In addition, the TGI with KM12 colon, in the assay with 786-0 renal, in the assay on EKVX NSCLC, in the assay with MDA-MB-231 breast, in the assay on NCI-H522 lung and in the assay on A498 renal was over 25 µM throughout. For the same compound, the TGI in the assay with PC-3 prostate and in the assay on HOP-92 NSCLC was over 25 µM throughout.
Take `Cc1ccc(/C=C2\CN(C(=O)OC(C)(C)C)C/C(=C\c3ccc(C)cc3)C2=O)cc1`: the GI50 was 0.149 µM in the assay with KM12 colon; 0.445 µM with 786-0 renal; 1.22 µM in the assay with MDA-MB-231 breast; 0.159 µM in the assay on NCI-H522 lung; 0.452 µM with PC-3 prostate; 8.97 µM in the assay with HOP-92 NSCLC. In addition, the TGI was over 100 µM in the assay on KM12 colon; over 100 µM with 786-0 renal; over 100 µM with EKVX NSCLC; over 54.3 µM with MDA-MB-231 breast; over 100 µM in the assay on NCI-H522 lung; over 100 µM in the assay on A498 renal. In addition, the TGI in the assay with PC-3 prostate and in the assay with HOP-92 NSCLC was over 100 µM each time.
Take `Cc1occc1C(=S)Nc1ccc(Cl)c(COC(C)(C)C)c1`: the TGI with KM12 colon came to 31.7 µM; in the assay with 786-0 renal, 30.3 µM; in the assay on EKVX NSCLC, 37.1 µM; in the assay on MDA-MB-231 breast it was 32 µM; in the assay with NCI-H522 lung, 28.6 µM; in the assay on A498 renal it was 32.3 µM. The TGI turned out to be 30.6 µM in the assay on PC-3 prostate and 30.4 µM in the assay on HOP-92 NSCLC.
As for `C=C1C(=O)O[C@H]2[C@H]1CC/C(COC(=O)NCc1ccccc1OC)=C\CC[C@@]1(C)O[C@@H]21`, the GI50 in the assay with KM12 colon is 3.53 µM; with 786-0 renal, 1.16 µM; in the assay on EKVX NSCLC, 1.98 µM; in the assay on MDA-MB-231 breast, 1.47 µM; in the assay on NCI-H522 lung it was 0.351 µM; in the assay on A498 renal, 3.23 µM. The values for the GI50 in the assay with PC-3 prostate and in the assay with HOP-92 NSCLC were 3.13 µM and 1.49 µM, respectively. The TGI came out at 13.6 µM with KM12 colon; 2.74 µM in the assay on 786-0 renal; 6.39 µM with EKVX NSCLC; 3.49 µM in the assay on MDA-MB-231 breast; 1.92 µM in the assay on NCI-H522 lung; 8.53 µM in the assay with A498 renal. In addition, the TGI with PC-3 prostate was determined as 10.6 µM; with HOP-92 NSCLC, 3.72 µM.
On to `COC1(C(=O)N[C@@H](C)c2ccc(-n3cc(F)cn3)nc2)CCC(c2nc(C)cc(Nc3cc(C)[nH]n3)n2)CC1` (stereo not given in full), for which the GI50 with KM12 colon was 0.0676 µM; in the assay with 786-0 renal, 1.33 µM; in the assay on EKVX NSCLC, 0.688 µM; in the assay with MDA-MB-231 breast, 1.14 µM; with NCI-H522 lung it was 2.26 µM; with A498 renal, 0.147 µM. Besides, the GI50 with PC-3 prostate is 3.66 µM; in the assay with HOP-92 NSCLC it was 0.481 µM. Besides, the TGI amounted to 18.2 µM in the assay with KM12 colon; 8 µM in the assay with 786-0 renal; 2.94 µM with EKVX NSCLC; 4.69 µM with MDA-MB-231 breast; 16.7 µM in the assay with NCI-H522 lung; 0.7 µM with A498 renal. Moreover, the TGI in the assay on PC-3 prostate was determined as 32.7 µM; in the assay on HOP-92 NSCLC, 2.58 µM.
In the case of `CC(C)(C)C[C@H]1NC(C(=O)NCC[C@H](O)CO)[C@H](c2cccc(Cl)c2)[C@@]12C(=O)Nc1cc(Cl)c(F)cc12` (stereo not given in full), the GI50 was 14.7 µM in the assay with KM12 colon; 17 µM in the assay with 786-0 renal; 13.3 µM with EKVX NSCLC; 14.9 µM with MDA-MB-231 breast; 14.3 µM with NCI-H522 lung; 4.41 µM in the assay on A498 renal. Besides, the GI50 in the assay with PC-3 prostate was 14.9 µM; in the assay on HOP-92 NSCLC, 13.3 µM. In addition, the TGI in the assay with KM12 colon was determined as 28.8 µM; in the assay on 786-0 renal, 33.8 µM; with EKVX NSCLC, 29.1 µM; with MDA-MB-231 breast, 32.4 µM; in the assay on NCI-H522 lung it was 30 µM; in the assay with A498 renal it was 18.7 µM. The TGI with PC-3 prostate stood at 34.7 µM; in the assay on HOP-92 NSCLC, 28.4 µM.
